Experiments:
TF-1 cells = TF-1 cells viability in vitro in the presence of IL-4 (JAK1/JAK3 activation); format: cell-based; details: for IC50: Homo sapiens, TF-1, 20 ng/mL IL-4, 72 hours, ATPlite, read-out: JAK1,3 IL4 (EC50, inhibition of viability of TF-1 cells); for JAK2/JAK1,3 Ratio: ratio of TF-1 viability EC50 with IL3 to EC50 with IL4
Protocol: Assay for TF-1 Cells Viability In Vitro
The effects of the activity of the compounds of the invention were tested in vitro using cells viability assay described below.
Tested compounds were dissolved in 100% DMSO, and obtained stock solutions were serially diluted in OptiMEM medium (Reduced Serum Medium-Thermo Fisher Scientific). TF-1 cells (DSMZ no.: ACC 334) in culture medium (80% RPMI 1640+20% FBS) ad in the presence of 5 ng/mL IL-3 or 20 ng/mL IL-4 were deposited on 96-well plates in the volume of 90 μl per well, 10 thousands of cells per well. To a well of the 96-well plate 10 μL of the prepared 10× stock solutions of the compounds. Cells on 96-well plates were incubated with the compounds for 72 hours at 37° C., 5% CO2. Subsequently, viability of the cells was measured using ATPlite kit (Perkin Elmer). For this purpose, 50 μL of lysis buffer (mammalian cell lysis solution) were added to a well of the 96-well plate and the plate was incubated for 10 minutes at 25° C. in a plate thermo-shaker with orbital stirring at 600 rpm. Then to a well of the 96-well plate 50 μL of substrate (substrate solution) were added and incubated for 15 minutes at in dark, in a plate thermo-shaker with orbital stirring at 600 rpm. After incubation time, luminescence intensity in a well was measured using Victor×Light luminometer (Perkin Elmer, Inc.).
(§1) On the basis of luminescence intensity measurements in well containing tested compounds at various concentrations and in control wells EC50 values were determined. These values were determined with Graph Pad software v. 5.03, by fitting points of the curve using non-linear regression method. Each compound was tested in at least 6 repetitions (6 wells) on two 96-well plates, using at least 3 wells of each control.

[1] = tested on: INFγ secreted by lymphocytes T; experiment: Inhibition of INFγ production by lymphocytes T in vitro; format: cell-based; details: Lymphocyte, 48 hours, human CD4+ lymphocytes T; for inhibition at 0.01 µM: 10 nM; for inhibition at 0.1 µM: 100 nM; for inhibition at 1 µM: 1000 nM
Protocol: (§2) Assay for Inhibition of TNFα and INFγ Production by Lymphocytes T In Vitro
(§3) The activity of the compounds of the invention was tested using in vitro assay described below.
(§4) Tested compounds were dissolved in 100% DMSO, and obtained stock solutions were serially diluted with OptiMEM medium (Reduced Serum Medium-Thermo Fisher Scientific). Lymhocytes were isolated from leukocyte top coat layer obtained from human peripheral blood. Isolation of peripheral blood mononuclear cells was performed using Ficoll-Paque+Leucosept gradient method, with lymphocytes isolation using CD4+ T Cell Isolation Kit, and activation using T Cell Activation/Expansion Kit (Miltenyi Biotec). Isolated cells in culture medium (90% RPMI 1640+10% FBS) were sived on 12-well plates at 450 μL/well, 300 thousands/well, and 50 μL of prepared 10× stock solutions of tested compounds were added. After 48 hours supernatant was collected for determination of the level of secreted cytokines. Before determination, cells were centrifuged at 1000 g, 10 min. Determination was performed with flow cytometer FACS Calibur using LEGENDplex Human Th cytokine kit. Results are presented in Table 3 as a percentage of inhibition of TNFα i INFγ cytokines secreted by lymphocytes T with reference to control cells.

Recombinant kinase JAK3 = Recombinant kinase JAK3 (Homo sapiens (Human), UniProt P52333); experiment: In vitro JAK kinase inhibition assay (ADP-Glo), JAK3; format: biochemical; details: 30 μM ATP, peptide IGF-1Rtide, averaged
Protocol: In Vitro JAK Kinase Inhibition Assay
The effects of the compounds of the invention were analysed in vitro using kinase JAK inhibition assay described below.
Tested compounds were dissolved in 100% DMSO, and obtained stock solutions were serially diluted in the reaction buffer (50 mM Tris pH 7.5, 10 mM MgCl2, 0.25 mM EGTA, 0.1 mM Na3VO4, 0.01% Triton X-100, 2.5 mM DTT). Recombinant kinases JAK1 (ProQinase), JAK2, or JAK3 (Carna Biosciences) were diluted in the dilution buffer (50 mM Tris-HCl pH 7.5, 150 mM NaCl, 10% glycerol, 0.05% Triton X-100, 1 mM DTT) to the final concentration 3 ng/μL (JAK1), 0.1 ng/μL (JAK2), or 0.2 ng/μL (JAK3). 5 μL of obtained solution of the compounds and 5 μL of the solution of respective kinases were added to the well of a 96-well plate. To initiate interaction between tested compounds and an enzyme, the plate was incubated for 10 minutes at 25° C. in a Plate-Thermo-Shaker with orbital stirring at 400 rpm. Wells of a negative control contained all reagents as mentioned above with the exception of tested compounds and kinase, and wells of a positive controls contained all reagents as mentioned above with the exception of tested compounds. Enzymatic reaction was initiated by the addition of 15 μL of the following solution: 5× concentrated reaction buffer (50 mM Tris pH 7.5, 10 mM MgCl2, 0.25 mM EGTA, 0.1 mM Na3VO4, 0.01% Triton X-100, 2.5 mM DTT), water, 30 μM ATP and for particular kinases: JAK1—60 μM peptide IRS-1 (Enzo), JAK2 or JAK3—10 μM peptide IGF-1Rtide (Lipopharm). Then the plate was incubated for 1 hour at 25° C. in a Plate-Thermo-Shaker, with orbital stirring at 400 rpm. Detection of ADP formed in the enzymatic reaction was then performed using ADP-Glo Kinase Assay kit (Promega). For this purpose, to the well of the 96-well plate 25 μL of ADP-Glo Reagent were added, and the plate was incubated for 40 minutes at 25° C. in a Plate-Thermo-Shaker with orbital stirring at 400 rpm. Then to the well of the 96-well plate 50 μL of Kinase Detection Reagent were added and the plate was incubated for 30 minutes at 25° C. in a Plate-Thermo-Shaker with orbital stirring at 400 rpm. After incubation, luminescence intensity was measured using Victor×Light luminometer (Perkin Elmer, Inc.).
as §1, with “luminescence measurement” for “luminescence intensity measurements”, “in wells” for “in well”, “control wells, IC50” for “control wells EC50”
Averaged results of kinases JAK inhibition activity for selected compounds of the present invention are presented below in Table 1.

[2] = tested on: TNFα secreted by lymphocytes T; experiment: Inhibition of TNFα production by lymphocytes T in vitro; format: cell-based; details: Lymphocyte, 48 hours, human CD4+ lymphocytes T; for inhibition at 0.01 µM: 10 nM; for inhibition at 0.1 µM: 100 nM; for inhibition at 1 µM: 1000 nM
Protocol: as §2, §3, §4

Sequence of Recombinant kinase JAK3 (P52333 whole entry): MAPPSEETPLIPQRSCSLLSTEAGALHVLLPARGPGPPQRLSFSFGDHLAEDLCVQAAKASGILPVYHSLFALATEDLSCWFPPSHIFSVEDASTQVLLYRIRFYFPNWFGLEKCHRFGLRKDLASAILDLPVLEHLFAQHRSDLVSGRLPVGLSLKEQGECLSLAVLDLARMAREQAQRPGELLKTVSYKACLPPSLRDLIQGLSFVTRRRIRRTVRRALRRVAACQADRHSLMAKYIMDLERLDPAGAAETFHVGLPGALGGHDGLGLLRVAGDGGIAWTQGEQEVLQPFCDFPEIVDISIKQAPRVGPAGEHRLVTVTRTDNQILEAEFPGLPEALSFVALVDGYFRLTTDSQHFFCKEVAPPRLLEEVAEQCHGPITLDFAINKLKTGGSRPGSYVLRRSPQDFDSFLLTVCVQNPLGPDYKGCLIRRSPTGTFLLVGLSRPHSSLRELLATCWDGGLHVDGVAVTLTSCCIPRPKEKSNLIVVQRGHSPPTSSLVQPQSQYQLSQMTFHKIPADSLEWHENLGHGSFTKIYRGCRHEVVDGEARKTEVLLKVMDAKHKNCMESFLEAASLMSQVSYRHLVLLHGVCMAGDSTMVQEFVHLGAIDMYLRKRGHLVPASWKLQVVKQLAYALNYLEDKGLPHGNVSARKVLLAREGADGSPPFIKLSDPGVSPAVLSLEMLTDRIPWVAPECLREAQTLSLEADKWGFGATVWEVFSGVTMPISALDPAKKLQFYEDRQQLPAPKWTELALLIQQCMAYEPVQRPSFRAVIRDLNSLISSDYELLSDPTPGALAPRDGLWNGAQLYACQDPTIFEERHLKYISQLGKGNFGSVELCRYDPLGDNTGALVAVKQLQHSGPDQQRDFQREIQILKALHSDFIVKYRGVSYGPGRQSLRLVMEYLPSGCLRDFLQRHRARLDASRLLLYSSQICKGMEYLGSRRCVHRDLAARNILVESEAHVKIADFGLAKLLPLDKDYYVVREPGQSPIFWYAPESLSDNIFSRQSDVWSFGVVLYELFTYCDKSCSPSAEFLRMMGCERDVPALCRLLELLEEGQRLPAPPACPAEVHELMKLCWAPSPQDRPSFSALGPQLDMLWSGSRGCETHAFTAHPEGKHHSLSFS

**Q.** What does the source list for `COc1ccc(-c2cc3ncc(C(N)=O)c(N[C@@H]4CCN(c5ccc(C#N)nn5)CC4(C)C)n3n2)cn1` [Example 4, (R)-7-((1-(6-Cyanopyridazin-3-yl)-3,3-dimethylpiperidin-4-yl)amino)-2-(6-methoxy-pyridin-3-yl)pyrazolo[1,5-a]pyrimidine-6-carboxamide]?
**A.** IC50 (TF-1 cells): 69 nM; JAK2/JAK1,3 Ratio (TF-1 cells): 10.3; inhibition at 0.01 µM [1]: 80.9%; inhibition at 0.1 µM [1]: 86.5%; inhibition at 1 µM [1]: 95.6%; IC50 (Recombinant kinase JAK3): 2.67 nM; inhibition at 0.01 µM [2]: 57.1%; inhibition at 0.1 µM [2]: 78.7%; inhibition at 1 µM [2]: 95.3%

**Q.** For `CC1(C)CN(c2ccc(C#N)nn2)CC[C@H]1Nc1c(C(N)=O)cnc2cc(-c3ccc(N4CCOCC4)nc3)nn12` [Example 7, (R)-7-((1-(6-Cyanopyridazin-3-yl)-3,3-dimethylpiperidin-4-yl)amino)-2-(6-morpholinopyridin-3-yl)pyrazolo[1,5-a]pyrimidine-6-carboxamide], which IC50 (TF-1 cells) is on record?
**A.** 36.1 nM

**Q.** What about the “JAK2/JAK1,3 Ratio” value (TF-1 cells) of the same compound?
**A.** 7.8

**Q.** What about the inhibition at 0.01 µM [1] of the same compound?
**A.** 73.6%

**Q.** And the inhibition at 0.1 µM [1]?
**A.** 74.6%

**Q.** What about the inhibition at 1 µM [1] of the same compound?
**A.** 98.1%

**Q.** And the IC50 (Recombinant kinase JAK3)?
**A.** 0.19 nM

**Q.** And the inhibition at 0.01 µM [2]?
**A.** 60.6%

**Q.** What about the inhibition at 0.1 µM [2] of the same compound?
**A.** 76%

**Q.** What about the inhibition at 1 µM [2] of the same compound?
**A.** 98.5%

**Q.** For `COc1cccc(-c2cc3ncc(C(N)=O)c(N[C@@H]4CCN(c5ccc(C#N)nn5)CC4(C)C)n3n2)n1` [Example 11, (R)-7-((1-(6-Cyanopyridazin-3-yl)-3,3-dimethylpiperidin-4-yl)amino)-2-(6-methoxy-pyridin-2-yl)pyrazolo[1,5-a]pyrimidine-6-carboxamide], which IC50 (TF-1 cells) is on record?
**A.** 61.1 nM

**Q.** And the “JAK2/JAK1,3 Ratio” value (TF-1 cells)?
**A.** 7.4

**Q.** What about the inhibition at 0.01 µM [1] of the same compound?
**A.** 88.8%

**Q.** What about the inhibition at 0.1 µM [1] of the same compound?
**A.** 93.5%

**Q.** What about the inhibition at 1 µM [1] of the same compound?
**A.** 81.4%

**Q.** What about the IC50 (Recombinant kinase JAK3) of the same compound?
**A.** 0.03 nM

**Q.** What about the inhibition at 0.01 µM [2] of the same compound?
**A.** 57.4%

**Q.** What about the inhibition at 0.1 µM [2] of the same compound?
**A.** 88.1%

**Q.** What about the inhibition at 1 µM [2] of the same compound?
**A.** 88.5%

**Q.** What does the source list for `Cc1cc(-c2cc3ncc(C(N)=O)c(N[C@@H]4CCN(c5ccc(C#N)nn5)CC4(C)C)n3n2)ccn1` [Example 12, (R)-7-((1-(6-Cyanopyridazin-3-yl)-3,3-dimethylpiperidin-4-yl)amino)-2-(2-methyl-pyridin-4-yl)pyrazolo[1,5-a]pyrimidine-6-carboxamide]?
**A.** IC50 (TF-1 cells): 31.1 nM; JAK2/JAK1,3 Ratio (TF-1 cells): 11.6; inhibition at 0.01 µM [1]: 86.2%; inhibition at 0.1 µM [1]: 88%; inhibition at 1 µM [1]: 93%; IC50 (Recombinant kinase JAK3): 0.29 nM; inhibition at 0.01 µM [2]: 76.2%; inhibition at 0.1 µM [2]: 75.8%; inhibition at 1 µM [2]: 95.4%
